Results as given in patent US20240252472A1, “COMBINATIONS FOR TREATING CANCER” (Purdue Pharma L.P., priority 2023, published 2024).

Key:
Assay type in all cases: in vivo
[1] = test system: subcutaneous plasmacytoma derived from MM.1S cells; experiment: First subcutaneous plasmacytoma model, NSG mice with human NK cells; settings: EDO-S101 30 mg/kg i.v. weekly, daratumumab 8 mg/kg i.p. weekly, 4 weeks; vehicle 30 days
Experimental: For the first subcutaneous human plasmacytoma model, NSG mice (Charles River Laboratories, Wilmington, MA, USA) were subcutaneously inoculated into the right flank with 3×10^6 MM1S in 100 μL RPMI 1640 medium and 100 μL of Matrigel (BD Biosciences). When tumors developed, mice were injected with human NK cells isolated from buffy coats from healthy donors and randomized (4 mice/group) to receive: EDO-S101 (30 mg/kg, iv weekly), daratumumab (8 mg/kg, ip weekly), a combination thereof, or vehicle (PBS vehicle solution with 15% HPBCD, 1.5% acetic acid, and 1.25% NaHCO3). Both, NK cells and the treatments were administered over four consecutive weeks. Caliper measurements of the tumor diameters were performed three times a week, and the tumor volume was estimated as the volume of a 3D ellipse using the following formula: V=4/3π×(a/2)×(b/2)^2, where “a” and “b” correspond to the longest and shortest diameter, respectively. Animals were killed when their tumors reached 2 cm. Differences in tumor volumes between control and treated groups were evaluated using one-way analysis of variance and Dunn's post-hoc tests. […]

[2] = test system: subcutaneous plasmacytoma derived from MM1.S cells; experiment: Second subcutaneous plasmacytoma model, CB17-SCID mice; settings: EDO-S101 30 mg/kg i.v. weekly, daratumumab 8 mg/kg i.p. weekly, 4 weeks; vehicle 34 days
Source text: For the second subcutaneous human plasmacytoma model, CB17-SCID mice (The Jackson Laboratory) were used. CB17-SCID mice were randomised into groups (n=5). The design of the experiment (treatment doses and time schedule) was identical to the experiment described above with NSG mice except for the inoculation of NK cells, since CB17-SCID mice have their own functional NK cells.
For the second subcutaneous human plasmacytoma model, CB17-SCID mice (20 female mice, 5-6 weeks old; from The Jackson Laboratory) were used. The design of the experiment (treatment doses and time schedule) was identical to the one performed with NSG mice except for the inoculation of human NK cells, since CB17-SCID mice hold their own functional NK cells (Dorshkind et al., J Immunol 134:3798-3801, 1985).
In the second xenograft plasmacytoma model, CB17-SCID mice bearing a subcutaneous plasmacytoma derived from MM1.S cells were randomized to receive vehicle, daratumumab, EDO-S101 or the double combination. Mice were treated with EDO-S101 on Mondays and daratumumab was administered on Tuesdays. […] Furthermore, statistical differences in survival were also found between the combination vs vehicle (58 days±2.739 vs 34 days±2.191 days, respectively; p=0.003).

MM1S-luc derived tumors = experiment: Disseminated human myeloma model, CB17-SCID mice; settings: EDO-S101 15 mg/kg i.v. weekly, daratumumab 8 mg/kg i.p. weekly, 4 weeks; vehicle 33 days
Experimental: MM1S-luc cells (3×10^6) were injected intravenously (i.v.) into CB17-SCID mice which were determined to have normal NK cells, monocytes and granulocytes (The Jackson Laboratory, Bar Harbor, ME, USA). Tumor development was monitored by non-invasive bioluminescence imaging (BLI) with a Xenogen IVIS 50 system (Caliper Life Sciences, Hopkinton, MA, USA). Mice were randomized into four groups (n=5/group): one receiving vehicle (i.v., weekly), another group receiving EDO-S101 (15 mg/kg i.v., weekly on Tuesdays), another group receiving daratumumab (8 mg/kg i.p., weekly on Wednesdays) and the last group receiving the double combination of EDO-S101+daratumumab. Both drugs were administered over a period of 4 weeks.
CB17-SCID mice bearing MM1S-luc derived tumors were treated with EDO-S101, daratumumab, a combination thereof, or vehicle, in accordance with the methods outlined above. MM1S-Luc cells (3×10^6) were intravenously injected into CB17-SCID mice. After 2 weeks, mice were randomized into four groups: one receiving vehicle (i.v., weekly), another group receiving EDO-S101 (15 mg/kg i.v., weekly on Tuesdays), another group receiving daratumumab (8 mg/kg i.p., weekly on Wednesdays) and the last group received the double combination of EDO-S101+daratumumab. Survival of mice analyzed with a Kaplan-Meier curve. Both drugs were administered over a period of 4 weeks.

## daratumumab: anti-CD38 monoclonal antibody clinically approved for multiple myeloma [reference compound]
[1]
  median survival: 34 days
[2]
  overall median survival: 41 days
MM1S-luc derived tumors
  median survival: 59 days
